Measured values taken from publication PMC7893776, “Selecting an anti-malarial clinical candidate from two potent dihydroisoquinolones” (Malaria Journal, 2021).
Where two headings read alike, the source gives them in different places. Blank lines part the entries; values can stand above or below the molecule they belong to.

What was measured:
[1] = Microsomal stability, rat; format: in vitro ADME; conditions: rat microsomes; for CLint in vitro: independent replicate to Table 4; for CLint in vivo: scaled up using PBSF
Experimental: (§1) The metabolic stability assay was performed by incubating compounds individually (0.8, 4, or 20 µM) with mouse, rat, dog and human liver microsomes (Fisher, 0.5 mg/mL protein concentration) at 37 °C. The metabolic reaction was initiated by the addition of a NADPH-regenerating system and quenched at various time points by the addition of acetonitrile according to a published method.
(§2) The remaining concentration of each compound was measured as a ratio of peak area to the internal standard. The log peak area ratio was plotted vs. time (h), and the slope was determined to calculate the elimination rate constant [k = (− 2.303) * slope]. If deviation from first order kinetics was evident, only the initial linear portion of the plot was used to determine the rate constate, k. The half-life (h) was calculated as t1/2 = 0.693/k. Intrinsic clearance in vitro was calculated as CLintin vitro = (1000)*(0.693/t1/2*60)/0.5, where microsomal concentration in the reaction solution was 0.5 mg/mL; 1000 and 60 are scaling factors for volume (µL) and time (min), respectively. The intrinsic in vitro clearance was scaled to the intrinsic in vivo clearance using physiology based scaling factor (PBSF): CLint in vivo= CLint in vitro *PBSF: (microsome protein/gram liver) * (gram liver/kg b.w.), with PBSF: 47 (mouse), 47(rat), 58 (dog), 32 (human); and liver weight proportions: 54.9 (mouse), 36.6 (rat), 32.9 (dog) 25.7 (human).

[2] = Rat pharmacokinetics, single PO or IV dose; format: in vivo, male Sprague Dawley rats
Excerpt: Studies were undertaken to determine the plasma pharmacokinetics of SJ733 and SJ311. These studies included: (i) single oral gavage (PO) or intravenous (IV) dose administration to female C57BL/6 mice; (ii) single PO or IV dose administration to male Sprague Dawley (SD) rats; (iii) single PO or IV dose administration to male beagle dogs; (iv) toxicokinetic (TK) study following single PO administration to male SD rats. The PO and IV formulation used for mouse studies at SJCRH was 1% hydroxypropyl-beta-cyclodextrin (w/v), 10% ethanol (v/v), 10% propylene glycol (v/v), 40% PEG-400 (v/v) and 39% PBS (pH 7.4) isotonic (v/v). Compounds were dosed orally as suspensions, and intravenously as filtered solutions. Compound concentrations were confirmed post filtration using UV spectroscopy. The IV formulation used for rat studies (Monash University) was the same as that used for mice. For PO dosing to rats (Monash University) at 2 mg/kg, a suspension formulation was used containing 0.5% (w/v) hydroxypropyl methylcellulose, 0.5% (v/v) benzyl alcohol and 0.4% (v/v) Tween 80. The formulation used for rat studies at SRI (PO, high dose) was the same as that used in mouse PK studies. The formulation for the high dose TK study at SRI was 0.5% methylcellulose in sterile water. The formulation used for dog studies was the same as that used in mouse PK studies. The PO and IV PK of SJ733 and SJ311 were studied in overnight-fasted male Sprague Dawley rats. Rats had access to water ad libitum throughout the pre- and post-dose sampling period, and access to food was re-instated 4 h post-dose. […] Once collected, blood samples were centrifuged, supernatant plasma was removed and stored frozen (− 20 °C) until LC–MS analysis within 1 week of collection. The high dose levels of both compounds (50, 100, 200 mg/kg, PO, (+)-SJ733/311) were also independently tested by SRI, with a single oral gavage administration. Blood (through jugular vein) and urine were collected at time points up to 72 and 24 h post dose, respectively. Supernatant plasma was removed following centrifugation and stored frozen (− 70 °C) until LC–MS analysis. For toxicology studies, male Sprague Dawley rats were administered 50, 100, 250, 500, or 750 mg/kg of (r)-SJ733 or (r)-SJ311 by oral gavage (one dose per animal). Body weights were recorded on Day 1 prior to dose administration and on Day 4. Blood samples (400 µL) were collected at 4 and 24 h post drug administration from the retro-orbital sinus. Potassium EDTA treated plasma was collected and kept frozen at -70 °C for bioanalytical analysis. For studies at Monash University, rat plasma and urine samples were extracted utilizing protein precipitation with a twofold volume ratio of acetonitrile. SJ733, SJ311, and diazepam (IS) were detected using LC–MS/MS instrumentation. Aliquots (3 µL) were injected onto a Waters Acquity UPLC equipped with a Waters Micromass Xevo TQ MS/MS and separated using a Supelco Ascentis Express RP Amide column (50 × 2.1 mm, 2.7 µm) with a methanol–water gradient containing 0.05% formic acid. Calibration standards were prepared by spiking blank matrix (plasma or urine) and the calibration range was from 1 to 10,000 ng/mL for plasma or 2.5 to 5000 ng/mL for urine. Plasma and urine samples from the high dose rat PK studies were analyzed by SRI. In both matrices, the sample volume was 50 μL, and assay entailed the addition of 50 μL of internal standard solution to the standards and study samples. The compounds were used as reciprocal standards for one another (427 nM SJ733 in Milli-Q-Water for SJ571311 and 437 nM SJ311 in Milli-Q-Water for SJ733). These mixtures were then extracted with 1000 μL of ethyl acetate by vortexing for 10 min on a multi-tube vortex mixer at maximum speed followed by separation of the organic and aqueous phases by centrifugation (18,000×g, 5 min). […]

[3] = Microsomal stability, human; format: in vitro ADME; conditions: human microsomes; for CLint in vitro: independent replicate to Table 4; for CLint in vivo: scaled up using PBSF
Experimental: as §1, §2

CYP2C19 = biological target: T1, CYP2C19 (Homo sapiens, UniProt P33261); assay: CYP450 inhibition, CYP2C19; format: in vitro ADME
T1 construct: purchased Cypex Ltd (Bactosomes)
T1 sequence (P33261 whole entry): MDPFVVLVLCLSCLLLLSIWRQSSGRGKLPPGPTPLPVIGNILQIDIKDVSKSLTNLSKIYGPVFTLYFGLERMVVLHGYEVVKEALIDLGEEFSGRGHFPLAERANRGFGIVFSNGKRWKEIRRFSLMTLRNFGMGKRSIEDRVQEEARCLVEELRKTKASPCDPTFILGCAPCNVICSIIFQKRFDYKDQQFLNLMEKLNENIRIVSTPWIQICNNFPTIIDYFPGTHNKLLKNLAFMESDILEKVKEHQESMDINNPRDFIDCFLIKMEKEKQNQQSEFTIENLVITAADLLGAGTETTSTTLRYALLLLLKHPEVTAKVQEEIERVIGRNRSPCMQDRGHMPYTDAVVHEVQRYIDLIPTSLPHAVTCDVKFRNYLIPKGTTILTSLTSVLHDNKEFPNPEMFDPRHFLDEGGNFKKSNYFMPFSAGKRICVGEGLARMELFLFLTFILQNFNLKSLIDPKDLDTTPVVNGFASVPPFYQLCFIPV

CYP2D6 = biological target: T2, CYP2D6 (Homo sapiens, UniProt P10635); assay: CYP450 inhibition, CYP2D6; format: in vitro ADME
T2 construct: purchased Cypex Ltd (Bactosomes)
T2 sequence (P10635 whole entry): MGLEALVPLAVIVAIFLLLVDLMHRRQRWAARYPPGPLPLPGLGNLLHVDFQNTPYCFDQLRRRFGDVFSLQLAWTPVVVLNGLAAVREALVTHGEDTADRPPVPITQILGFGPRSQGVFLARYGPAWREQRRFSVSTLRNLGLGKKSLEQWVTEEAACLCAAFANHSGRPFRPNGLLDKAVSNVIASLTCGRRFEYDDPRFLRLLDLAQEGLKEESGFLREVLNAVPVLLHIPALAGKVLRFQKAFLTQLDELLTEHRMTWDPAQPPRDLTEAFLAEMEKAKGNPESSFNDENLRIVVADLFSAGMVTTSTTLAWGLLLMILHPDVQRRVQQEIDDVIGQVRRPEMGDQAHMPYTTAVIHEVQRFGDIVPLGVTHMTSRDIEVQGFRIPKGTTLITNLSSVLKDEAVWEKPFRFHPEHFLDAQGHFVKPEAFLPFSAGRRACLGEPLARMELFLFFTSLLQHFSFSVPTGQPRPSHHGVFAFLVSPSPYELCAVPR

- CLint ([1]; 0.8 µM): < 7 µl/min/mg protein
- t1/2 ([1]; 0.8 µM): > 4 h
- Half life ([2]; in vivo, po, 20.4 mg/kg): 7.9, 7.9 h
- AUCinf ([2]; in vivo, po, 50 mg/kg): 34.1 ± 8.7 µM·h
- CL/F ([2]; in vivo, po, 50 mg/kg): 56.7 ± 16.7 mL/min/kg
- Cmax ([2]; in vivo, po, 50 mg/kg): 4.4 ± 2 µM
- F% ([2]; in vivo, po, 50 mg/kg): 20.5%
- Half life ([2]; in vivo, po, 50 mg/kg): 3.5 ± 0.4 h
- Tmax ([2]; in vivo, po, 50 mg/kg): 1.2 ± 0.8 h
- V/F ([2]; in vivo, po, 50 mg/kg): 17 ± 7.0 L/kg
- AUCinf ([2]; in vivo, po, 100 mg/kg): 61.9 ± 11.5 µM·h
- CL/F ([2]; in vivo, po, 100 mg/kg): 60 ± 12 mL/min/kg
- Cmax ([2]; in vivo, po, 100 mg/kg): 7.1 ± 0.81 µM
- F% ([2]; in vivo, po, 100 mg/kg): 18.6%
- Half life ([2]; in vivo, po, 100 mg/kg): 4.3 ± 2.2 h
- Tmax ([2]; in vivo, po, 100 mg/kg): 4 h
- V/F ([2]; in vivo, po, 100 mg/kg): 21 ± 8.0 L/kg
- AUCinf ([2]; in vivo, po, 200 mg/kg): 65.8 ± 12.6 µM·h
- CL/F ([2]; in vivo, po, 200 mg/kg): 112 ± 8.3 mL/min/kg
- Cmax ([2]; in vivo, po, 200 mg/kg): 9.4 ± 5.4 µM
- Dose in urine ([2]; in vivo, po, 200 mg/kg): 1.1 ± 0.4%
- F% ([2]; in vivo, po, 200 mg/kg): 9.9%
- Half life ([2]; in vivo, po, 200 mg/kg): 4 h
- Tmax ([2]; in vivo, po, 200 mg/kg): 3.2 ± 4.2 h
- V/F ([2]; in vivo, po, 200 mg/kg): 38 L/kg
- CLint ([3]; 0.8 µM): < 7 µl/min/mg protein
- t1/2 ([3]; 0.8 µM): > 4 h
SMILES: N#Cc1cc(NC(=O)[C@H]2c3ccccc3C(=O)N(CC(F)(F)F)[C@@H]2c2cn[nH]c2)ccc1F [(+)-SJ311]

- CLint ([1]; 0.8 µM): < 7 µl/min/mg protein
- t1/2 ([1]; 0.8 µM): > 4 h
- CLint in vitro ([1]; 0.8 µM): <7 µl/min/mg protein
- CLint in vivo ([1]; 0.8 µM): <11.7 mL/min/kg
- CLint in vitro ([1]; 4 µM): <7 µl/min/mg protein
- CLint in vivo ([1]; 4 µM): <11.7 mL/min/kg
- CLint in vitro ([1]; 20 µM): <7 µl/min/mg protein
- CLint in vivo ([1]; 20 µM): <11.7 mL/min/kg
- AUCinf ([2]; in vivo, iv, 0.1 mg/kg): 14.7 ± 0.7 µM·h
- CL ([2]; in vivo, iv, 0.1 mg/kg): 11.3 ± 0.33 mL/min/kg
- Dose in urine ([2]; in vivo, iv, 0.1 mg/kg): 1.6 ± 0.5%
- Half-life ([2]; in vivo, iv, 0.1 mg/kg): 9.2 ± 0.4 h
- Vss ([2]; in vivo, iv, 0.1 mg/kg): 3.3 ± 0.2 L/kg
- AUCinf ([2]; in vivo, po, 1.7 mg/kg): 1.9 ± 0.6^ c h.µM
- Cmax ([2]; in vivo, po, 1.7 mg/kg): 0.7 ± 0.1 µM
- Dose in urine ([2]; in vivo, po, 1.7 mg/kg): 0.5 ± 0.3%
- F% ([2]; in vivo, po, 1.7 mg/kg): 36.7 ± 12%
- Tmax ([2]; in vivo, po, 1.7 mg/kg): 0.7 ± 0.3 h
- AUCinf ([2]; in vivo, po, 1.9 mg/kg): 6.6 ± 1.2 µM·h
- Cmax ([2]; in vivo, po, 1.9 mg/kg): 0.9 ± 0.1 µM
- Dose in urine ([2]; in vivo, po, 1.9 mg/kg): 1.2 ± 0.4%
- F% ([2]; in vivo, po, 1.9 mg/kg): 111 ± 19%
- Half life ([2]; in vivo, po, 1.9 mg/kg): 11.3 ± 6.0 h
- Tmax ([2]; in vivo, po, 1.9 mg/kg): 3.0 ± 0.9 h
- AUCinf ([2]; in vivo, po, 50 mg/kg): 96.3 ± 5.8 µM·h
- CL/F ([2]; in vivo, po, 50 mg/kg): 18.3 ± 1.7 mL/min/kg
- Cmax ([2]; in vivo, po, 50 mg/kg): 11.1 ± 1.2 µM
- F% ([2]; in vivo, po, 50 mg/kg): 74.5%
- Half life ([2]; in vivo, po, 50 mg/kg): 7.7 ± 3.2 h
- Tmax ([2]; in vivo, po, 50 mg/kg): 4 h
- V/F ([2]; in vivo, po, 50 mg/kg): 12 ± 5.0 L/kg
- AUCinf ([2]; in vivo, po, 100 mg/kg): 180 ± 23.2 µM·h
- CL/F ([2]; in vivo, po, 100 mg/kg): 20 ± 1.7 mL/min/kg
- Cmax ([2]; in vivo, po, 100 mg/kg): 16.6 ± 3.2 µM
- F% ([2]; in vivo, po, 100 mg/kg): 69.6%
- Half life ([2]; in vivo, po, 100 mg/kg): 10.3 ± 6.9 h
- Tmax ([2]; in vivo, po, 100 mg/kg): 3.0 ± 1.7 h
- V/F ([2]; in vivo, po, 100 mg/kg): 17 ± 9.0 L/kg
- AUCinf ([2]; in vivo, po, 200 mg/kg): 330 ± 78.4 µM·h
- CL/F ([2]; in vivo, po, 200 mg/kg): 21.7 ± 5 mL/min/kg
- Cmax ([2]; in vivo, po, 200 mg/kg): 27.9 ± 3.8 µM
- Dose in urine ([2]; in vivo, po, 200 mg/kg): 0.2 ± 0.1%
- F% ([2]; in vivo, po, 200 mg/kg): 63.8%
- Half life ([2]; in vivo, po, 200 mg/kg): 7.7 ± 3.3 h
- Tmax ([2]; in vivo, po, 200 mg/kg): 4.0 ± 3.5 h
- V/F ([2]; in vivo, po, 200 mg/kg): 15 ± 9.0 L/kg
- CLint ([3]; 0.8 µM): 45.5 ± 4.0 µl/min/mg protein
- t1/2 ([3]; 0.8 µM): 0.5 ± 0.1 h
- CLint in vitro ([3]; 0.8 µM): 42.6 ± 0.7 µl/min/mg protein
- CLint in vivo ([3]; 0.8 µM): 38.4 ± 0.7 mL/min/kg
- CLint in vitro ([3]; 4 µM): 34.5 ± 0.6 µl/min/mg protein
- CLint in vivo ([3]; 4 µM): 31.0 ± 0.5 mL/min/kg
- CLint in vitro ([3]; 20 µM): 20.6 ± 0.5 µl/min/mg protein
- CLint in vivo ([3]; 20 µM): 18.5 ± 0.4 mL/min/kg
SMILES: N#Cc1cc(NC(=O)[C@H]2c3ccccc3C(=O)N(CC(F)(F)F)[C@@H]2c2cccnc2)ccc1F [(+)-SJ733]

- fraction of the IV dose recovered in urine ([2]; IV, 24-h sampling period): ca. 22%
- AUC(0-inf) ([2]; male, Sprague Dawley, plasma, PO, all dose levels 50–200 mg/kg, read-out: mean AUCinf): 34.1 to 65.8 µM·h
- Half-life ([2]; male, Sprague Dawley, plasma, PO, read-out: terminal half-life, mean t1/2): 3.5 to 7.9 h
- CYP2C19 inhibition, in words (CYP2C19): weak inhibitor
- CYP2D6 inhibition, in words (CYP2D6): weak inhibitors
SMILES: N#Cc1cc(NC(=O)[C@H]2c3ccccc3C(=O)N(CC(F)(F)F)[C@@H]2c2cn[nH]c2)ccc1F [SJ311]
